Laboratory results: patent US12391682B2, “Isoquinoline derivatives and their use for the treatment of parasitic infections” (Elanco Animal Health GmbH, priority 2019, dated 2025)

Experiments:
[1] = tested on: Dirofilaria immitis microfilariae; experiment: In Vitro Assay 4: Dirofilaria immitis microfilariae (DIROIM L1), motility; settings: 72 h, read-out: EC50 (reduction of motility in comparison to the negative control)
[2] = target: D. immitis Slo-1 (Dirofilaria immitis, UniProt I0DFK5); experiment: In Vitro Assay 2: D. immitis Slo-1, membrane potential measurement in stable recombinant CHO cell line; format: cell-based
Sequence of D. immitis Slo-1 (I0DFK5 1-1119): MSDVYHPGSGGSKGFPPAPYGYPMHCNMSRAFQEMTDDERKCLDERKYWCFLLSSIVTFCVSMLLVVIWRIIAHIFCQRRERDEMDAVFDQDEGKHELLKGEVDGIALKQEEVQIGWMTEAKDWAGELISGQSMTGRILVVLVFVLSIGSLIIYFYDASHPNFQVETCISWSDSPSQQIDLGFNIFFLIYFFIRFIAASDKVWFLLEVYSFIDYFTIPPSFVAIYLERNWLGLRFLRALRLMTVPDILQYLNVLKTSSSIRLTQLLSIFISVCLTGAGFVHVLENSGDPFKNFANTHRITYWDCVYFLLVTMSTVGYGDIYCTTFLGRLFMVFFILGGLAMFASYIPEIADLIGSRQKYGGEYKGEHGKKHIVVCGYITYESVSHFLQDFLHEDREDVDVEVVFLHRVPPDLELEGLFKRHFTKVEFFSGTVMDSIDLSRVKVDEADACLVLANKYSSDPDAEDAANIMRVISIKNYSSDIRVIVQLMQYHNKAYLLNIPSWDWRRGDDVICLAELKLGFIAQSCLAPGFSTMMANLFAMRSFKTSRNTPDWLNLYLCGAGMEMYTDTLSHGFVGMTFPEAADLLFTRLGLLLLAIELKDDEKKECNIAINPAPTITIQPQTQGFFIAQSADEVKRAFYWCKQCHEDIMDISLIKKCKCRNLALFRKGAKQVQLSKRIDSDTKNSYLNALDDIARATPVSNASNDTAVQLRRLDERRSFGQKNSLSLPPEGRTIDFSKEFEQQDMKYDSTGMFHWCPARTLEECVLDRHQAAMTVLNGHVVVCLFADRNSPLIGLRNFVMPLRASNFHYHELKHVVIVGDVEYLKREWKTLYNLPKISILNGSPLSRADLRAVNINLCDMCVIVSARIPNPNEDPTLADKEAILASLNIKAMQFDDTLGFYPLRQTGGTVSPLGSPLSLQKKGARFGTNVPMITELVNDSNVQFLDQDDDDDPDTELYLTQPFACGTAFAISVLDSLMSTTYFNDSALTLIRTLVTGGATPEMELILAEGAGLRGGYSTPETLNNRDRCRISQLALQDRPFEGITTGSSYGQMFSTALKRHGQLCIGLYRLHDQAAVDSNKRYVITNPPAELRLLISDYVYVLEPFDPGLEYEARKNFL

[3] = tested on: Dirofilaria immitis; experiment: In Vitro Assay 5: Dirofilaria immitis (DIROIM L4), motility; settings: 72 h, read-out: EC50 (reduction of motility in comparison to the negative control)
[4] = tested on: Adult Nippostrongylus brasiliensis; experiment: In Vitro Assay 3: Nippostrongylus brasiliensis (NIPOBR), acetylcholine esterase readout; settings: at 10 μg/ml (10 ppm), adult worms, read-out: activity (reduction of AChE compared to negative control)
Procedure: In Vitro Assay 3: Nippostrongylus brasiliensis (NIPOBR)
Adult Nippostrongylus brasiliensis were washed with saline buffer containing 100 U/ml penicillin, 0.1 mg/ml streptomycin and 2.5 μg/ml amphotericin B. Test compounds were dissolved in DMSO and worms were incubated in medium in a final concentration of 10 μg/ml (10 ppm). An aliquot of the medium was used to determine the acetylcholine esterase activity in comparison to a negative control. The principle of measuring acetylcholine esterase as readout for anthelmintic activity was described in Rapson et al (1986) and Rapson et al (1987).

[5] = target: C. elegans Slo-1a (Caenorhabditis elegans, UniProt Q95V25)
Sequence of C. elegans Slo-1a (Q95V25 whole entry): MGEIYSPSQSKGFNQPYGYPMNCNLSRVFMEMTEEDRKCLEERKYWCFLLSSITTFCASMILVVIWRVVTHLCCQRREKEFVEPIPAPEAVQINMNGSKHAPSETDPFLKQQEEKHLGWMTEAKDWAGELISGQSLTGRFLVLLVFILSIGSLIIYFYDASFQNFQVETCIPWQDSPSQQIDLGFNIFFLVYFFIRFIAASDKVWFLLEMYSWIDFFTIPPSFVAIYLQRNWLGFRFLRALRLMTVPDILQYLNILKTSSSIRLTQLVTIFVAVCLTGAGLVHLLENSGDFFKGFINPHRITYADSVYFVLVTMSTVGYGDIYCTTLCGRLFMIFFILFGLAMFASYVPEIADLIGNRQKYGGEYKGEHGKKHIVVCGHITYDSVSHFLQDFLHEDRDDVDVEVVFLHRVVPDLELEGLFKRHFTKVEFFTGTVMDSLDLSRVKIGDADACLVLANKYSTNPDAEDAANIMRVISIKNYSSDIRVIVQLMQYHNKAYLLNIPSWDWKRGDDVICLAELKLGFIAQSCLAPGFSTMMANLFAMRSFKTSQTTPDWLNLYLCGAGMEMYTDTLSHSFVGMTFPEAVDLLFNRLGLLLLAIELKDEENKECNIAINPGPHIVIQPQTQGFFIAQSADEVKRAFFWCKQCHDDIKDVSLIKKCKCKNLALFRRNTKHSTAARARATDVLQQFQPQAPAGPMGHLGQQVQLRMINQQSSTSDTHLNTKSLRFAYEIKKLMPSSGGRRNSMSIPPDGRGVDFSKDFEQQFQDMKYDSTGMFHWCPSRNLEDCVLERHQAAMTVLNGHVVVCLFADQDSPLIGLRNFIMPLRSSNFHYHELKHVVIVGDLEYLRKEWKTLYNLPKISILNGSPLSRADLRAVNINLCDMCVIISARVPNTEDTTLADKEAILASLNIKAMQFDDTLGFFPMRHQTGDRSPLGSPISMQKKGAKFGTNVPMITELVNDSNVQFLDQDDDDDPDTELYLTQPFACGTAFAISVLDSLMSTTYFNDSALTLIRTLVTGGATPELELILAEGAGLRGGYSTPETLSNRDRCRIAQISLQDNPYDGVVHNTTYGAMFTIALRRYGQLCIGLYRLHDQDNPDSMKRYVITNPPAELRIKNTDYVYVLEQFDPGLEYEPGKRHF
Procedure: In Vitro Assay 1: C. elegans Slo-1a—Action at a Recombinant C. elegans Cell Line
Generation of a Stable Caenorhabditis elegans CHO Cell Line
A CHO cell line was obtained from ATCC, code ATCC CRL-9096. For transfection with plasmid DNA to express C. elegans Slo-1a (accession number AAL28102)CHO cells were passaged to 40% confluence before adding the transfection solution to the cell culture. The transfection solution included 300 μL OptiMEM (Life Technologies, Nr.: 31985), 2 μL (=6 μg) of plasmid DNA containing the C. elegans Slo 1a gene and 9 μL FugeneHD (Promega, Nr.: E2311), and was added to the cells prior to incubation for 48 hours at 37° C., 5% CO2. The transfection medium was exchanged for the selection medium which contains additional G418 (2 mg/ml, Invitrogen, Nr.: 10131) and the cells were seeded into 384 well plates (300 cells/well). […]
After starting the measurement of fluorescence using a FLIPR Tetra (Molecular Devices, Exc. 510-545 nm, Emm. 565-625 n), test compounds were added followed by the addition of KCl tyrode (final assay concentration: 70 mM KCl, 2 mM CaCl2, 1 mM MgCl2, 0.8 mM NaH2PO4, 5 mM Glucose, 28 mM Hepes, pH 7.4, including the voltage sensitive dye). […]
The data were evaluated by using the ActivityBase XLfit software (IDBS) for curve fitting and calculation of the half-maximal effective concentration (EC50) and are reported as negative decadic logarithm (pE50).

| SMILES | EC50 [1] [mg/L] | EC50 [2] [µM] | EC50 [3] [mg/L] | inhibition at 10 µg/mL [4] [%] | EC50 [5] [µM] |
| --- | --- | --- | --- | --- | --- |
| O=C(N[C@H]1CCOc2ccccc21)c1ncc2c(-c3cc(F)cc(F)c3F)cccc2c1N1CCOCC1 [Example I-1, N-[(4S)-3,4-dihydro-2H-chromen-4-yl]-4-(morpholin-4-yl)-8-(2,3,5-trifluorophenyl)isoquinoline-3-carboxamide] | < 0.1 | 0.00316 to 0.0316 | < 0.1 | > 80 | – |
| Cc1c(C(=O)N[C@H]2CCOc3ccccc32)ncc2c(-c3cc(F)cc(F)c3F)cccc12 [Example I-2, N-[(4S)-3,4-dihydro-2H-chromen-4-yl]-4-methyl-8-(2,3,5-trifluorophenyl)isoquinoline-3-carboxamide] | < 0.1 | 0.316 to 5.01 | < 0.1 | > 80 | – |
| CC(C)c1c(C(=O)N[C@H]2CCOc3ccccc32)ncc2c(-c3cc(F)cc(F)c3F)cccc12 [Example I-3, N-[(4S)-3,4-dihydro-2H-chromen-4-yl]-4-isopropyl-8-(2,3,5-trifluorophenyl)isoquinoline-3-carboxamide] | < 0.1 | 0.0316 to 0.316 | < 0.1 | > 80 | – |
| CC(C)c1c(C(=O)N[C@H]2CCOc3ccccc32)ncc2c(-c3cc(Cl)cc(Cl)c3)cccc12 [Example I-4] | < 0.1 | 0.0316 to 0.316 | < 0.1 | > 80 | – |
| Cc1c(C(=O)N[C@H]2CCc3ccccc32)ncc2c(-c3cc(F)cc(F)c3F)cccc12 [Example I-7] | < 0.1 | 0.316 to 5.01 | < 1 | > 80 | – |
| O=C(N[C@H]1CCCc2ccccc21)c1ncc2c(-c3cc(Cl)cc(Cl)c3)cccc2c1N1CCOCC1 [Example I-8] | < 0.1 | 0.316 to 5.01 | < 0.1 | > 80 | 0.00316 to 0.0316 |
| O=C(N[C@H]1CCCc2ccccc21)c1ncc2c(-c3cc(F)cc(F)c3F)cccc2c1N1CCOCC1 [Example I-9] | < 0.1 | 0.0316 to 0.316 | < 0.1 | > 80 | – |
| O=C(N[C@H]1CCOc2ccccc21)c1ncc2c(-c3cc(Cl)cc(Cl)c3)cccc2c1N1CCOCC1 [Example I-11] | < 0.1 | 0.316 to 5.01 | < 0.1 | > 80 | – |
| CC(C)(C)c1cc(Cl)cc(-c2cccc3c(N4CCOCC4)c(C(=O)N[C@H]4CCOc5ccccc54)ncc23)c1 [Example I-12] | < 0.1 | 0.316 to 5.01 | < 0.1 | > 80 | – |
| Cc1c(C(=O)N[C@H]2CCOc3ccccc32)ncc2c(-c3cc(Cl)cc(Cl)c3)cccc12 [Example I-13] | < 0.1 | – | < 1 | > 80 | 0.0316 to 0.316 |
| O=C(NC1CCSc2ccc(F)cc21)c1ncc2c(-c3cc(F)cc(F)c3F)cccc2c1N1CCOCC1 (centres unmarked) [Example I-15] | < 1 | 0.316 to 5.01 | < 0.1 | – | – |
| O=C(N[C@H]1CCOc2ccccc21)c1cnc2c(Br)cccc2c1N1CCOCC1 [IC-1, 8-Bromo-N-[(4S)-3,4-dihydro-2H-chromen-4-yl]-4-(morpholin-4-yl)quinoline-3-carboxamide] | < 10 | – | – | – | – |
| Cc1c(C(=O)N[C@H]2CCOc3ccccc32)ncc2c(Br)cccc12 [IC-2, 8-Bromo-N-[(4S)-3,4-dihydro-2H-chromen-4-yl]-4-methylisoquinoline-3-carboxamide] | < 10 | – | – | – | – |
| CC(C)c1c(C(=O)N[C@H]2CCOc3ccccc32)ncc2c(Br)cccc12 [IC-3, 8-Bromo-N-[(4S)-3,4-dihydro-2H-chromen-4-yl]-4-isopropylisoquinoline-3-carboxamide] | < 10 | – | – | – | – |
